Structures can show the parent of a compound that is named as a salt. Where two headings read alike, the source gives them in different places.
Tests used:
[1] = target: T1, Recomb. Human Coag. Factor Xa protein (Homo sapiens, UniProt P00742); assay: Protease Factor Xa inhibition assay, chromogenic substrate Bz-Ile-Glu-Gly-Arg-pNA; assay type: biochemical; settings: 0.35 nM Factor Xa, 200 µM reference substrate, 30 minutes preincubation, absorption 405 nm, 25°C
T1 construct: purchased Bio-Techne GmbH 1063-SE-010
Description: (§1) Protease Factor Xa inhibiton assay - Calculation of IC50 values
(§2) Recomb. Human Coag. Factor Xa protein, CF: Bought 09.12.2020; Art. 1063-SE-010; Company: Bio-Techne GmbH
(§3) • Reconstitute at 100 µg/ml in sterile 25 mM MES, 150 mM NaCl, 5 mM CaCl2, pH6 • Diluted to a stock solution of 1000 nM with TNC buffer • This stock solution was further diluted with TNC buffer to a concentration of 35 nM and aliquoted. Stored at -20°C. Endconcentration in well: c = 0.35 nM
• Delivered: 5mg. Dilute and aliquote reference substrate to a concentration of 10 mM in pure DMSO. Endconcentration in well: c = 200 µM (= KM for Factor Xa)
(§4) • Inhibitor was diluted with pure DMSO to a concentration of 10 mM • This 10 mM stock solution was further diluted:
(§5) • 25 mM Tris, 150 mM NaCl, 5 mM CaCl2, 0,01% Triton X-100, pH = 8 (stored at 8°C)
(§6) • Total volume per well: 100µl • Temperature: 25°C • Kinetic interval: every 2 minutes • Absorption: 405 nm • Number of flashes: 25 • Shaking before measurememt: 3s • Shaking amplitude: 5 mm
(§7) • Per well: add 97 µl TNC buffer, add 1 µl of c = 35 nM solution of Factor Xa, add 1 µl of inhibitor • Incubate for 30 minutes at room temperature • After incubation, add 1 µl of c = 10 mM reference substrate Endconcentration of substances per well: c = 200 µM of reference substrate, c = 0.35 nM of Factor Xa solution, 2% DMSO
(§8) Graph pad prism 7 was used to analyze the data. The velocity (change of absorbance over time) was plotted against the concentration. A non linear regression was performed with the following equation: [inhibitor] vs. response - Variable slope (four parameters) Table 1. IC50 values of inventive inhibitors with respect to TMPRSS2, thrombin and Factor Xa

[2] = target: T2, TMPRSS2 (Homo sapiens, UniProt O15393); assay: TMPRSS2 inhibition, IC50 (Table 1); assay type: biochemical; settings: nonlinear regression, variable slope (four parameters)
[3] = system: pseudotyped particle LV(Luc)-CoV2 in CaCo-2 cells; settings: 2 h
[4] = target: T3, Recomb. Human Thrombin (Homo sapiens, UniProt P00734); assay: Protease Thrombin inhibition assay, chromogenic substrate D-Phe-Homopro-Arg-pNA; assay type: biochemical; settings: 30 minutes preincubation at room temperature, 100 µM reference substrate, absorption 405 nm, 25°C
T3 construct: purchased R&D systems 1473-SE-010
Description: (§9) Protease Thrombin inhibiton assay - Calculation of IC50 values
Protease: Recomb. Human Thrombin, Bought 30.01.2020; Art. 1473-SE-010; Company: R&D systems Reference substrate: D-Phe-Homopro-Arg-pNA; Company: Bachem; Art no.: 4008145.0050
• Reconstitute at 100 µg/ml (1428.57 nM) in sterile 50 mM HEPES and 640 mM NaCl • Diluted to a stock solution c = 0.04 µg/µl with TNC buffer
(§10) • Dilute and aliquote 2.1 mg of reference substrate to a concentration of c = 2000 µM in TNC. Dilute and aliquote further to a concentration of c = 200 µM in TNC buffer. Endconcentration in well: c = 100 µM.
as §4, §5, §6
(§11) • Per well: add 50 µl of Thrombin/TNC solution (c = 0.04 µg/µl), add 1 µl of inhibitor. • Incubate for 30 minutes at room temperature • After incubation, add […] of c = 200 µM reference substrate Endconcentration of substances per well: c = 100 µM of reference substrate, c = 0.002 µg of […] solution, 1% DMSO
(§12) • Graph pad prism 7 was used to analyze the data. The velocity (change of absorbance over time) was plotted against the concentration. A non linear regression was performed with the following equation: [inhibitor] vs. response - Variable slope (four parameters)

[5] = system: SARS-CoV2 WT; settings: 2 h
[6] = target: T2, TMPRSS2; assay: TMPRSS2 inhibition, IC50 (Table 1); assay type: biochemical; settings: nonlinear regression, variable slope (four parameters); remark: listed apart in the source
Source text: Inhibitors were screened against TMPRSS2, thrombin and factor Xa.

[7] = target: T1, Recomb. Human Coag. Factor Xa protein; assay: Protease Factor Xa inhibition assay, chromogenic substrate Bz-Ile-Glu-Gly-Arg-pNA; assay type: biochemical; settings: 0.35 nM Factor Xa, 200 µM reference substrate, 30 minutes preincubation, absorption 405 nm, 25°C; remark: listed apart in the source
Description: as §1, §2, §3
• Delivered: 5mg. Dilute and aliquote reference substrate to a concentration of 10 mM in pure DMSO.
as §4, §5, §6, §7, §8

[8] = system: pseudotyped particle LV(Luc)-CoV2 in CaCo-2 cells; assay: microbe, parasite or virus in culture; assay type: cell-based, SARS-CoV2; settings: Severe acute respiratory syndrome coronavirus 2, 2 h incubation with inhibitor before transduction, luciferase activity at 48 h post transduction
[9] = target: T3, Recomb. Human Thrombin; assay: Protease Thrombin inhibition assay, chromogenic substrate D-Phe-Homopro-Arg-pNA; assay type: biochemical
Description: as §9, §10, §4, §5, §11, §12

[10] = system: SARS-CoV2 WT; assay: microbe, parasite or virus in culture; assay type: cell-based; settings: Severe acute respiratory syndrome coronavirus 2

T2 sequence (O15393 whole entry): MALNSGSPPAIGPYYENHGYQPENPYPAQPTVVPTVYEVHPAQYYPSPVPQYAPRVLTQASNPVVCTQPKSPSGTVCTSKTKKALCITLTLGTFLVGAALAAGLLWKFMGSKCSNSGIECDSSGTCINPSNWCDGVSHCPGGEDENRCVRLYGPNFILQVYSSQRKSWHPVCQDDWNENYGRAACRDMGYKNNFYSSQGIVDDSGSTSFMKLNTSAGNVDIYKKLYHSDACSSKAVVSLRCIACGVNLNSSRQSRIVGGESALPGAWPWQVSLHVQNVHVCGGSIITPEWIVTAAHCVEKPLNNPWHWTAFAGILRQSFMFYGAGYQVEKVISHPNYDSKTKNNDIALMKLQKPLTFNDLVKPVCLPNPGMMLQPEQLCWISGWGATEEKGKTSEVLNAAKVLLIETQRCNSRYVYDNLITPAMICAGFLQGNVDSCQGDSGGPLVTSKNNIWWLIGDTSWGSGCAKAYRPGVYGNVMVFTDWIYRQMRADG
T1 sequence (P00742 235-488 limits assumed): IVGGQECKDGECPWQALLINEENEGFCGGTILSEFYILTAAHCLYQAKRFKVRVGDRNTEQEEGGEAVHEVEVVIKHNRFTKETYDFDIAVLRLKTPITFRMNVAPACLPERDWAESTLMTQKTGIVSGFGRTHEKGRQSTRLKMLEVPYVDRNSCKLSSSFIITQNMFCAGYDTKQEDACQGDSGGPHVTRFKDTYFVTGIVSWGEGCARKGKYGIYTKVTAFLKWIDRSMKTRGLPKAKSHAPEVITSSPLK
T1 sequence (P00742 41-179 partner limits assumed): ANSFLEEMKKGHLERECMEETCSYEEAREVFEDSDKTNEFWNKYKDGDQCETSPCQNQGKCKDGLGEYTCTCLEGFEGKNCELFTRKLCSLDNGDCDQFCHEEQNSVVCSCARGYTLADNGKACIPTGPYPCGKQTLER

| SMILES | IC50 [1] | IC50 [2] | IC50 [3] | IC50 [4] | IC50 [5] | IC50 [7] | other results |
| --- | --- | --- | --- | --- | --- | --- | --- |
| CC(=O)N[C@@H](C)C(=O)N[C@@H](CCC(=O)O)C(=O)N[C@@H](CCC(N)=O)C(=O)N[C@@H](CCCNC(=N)N)C(=O)c1nc2ccccc2s1 [Compound 2, Ac-AEQR-kbt] | 991 nM | 1670 nM | 470 nM | > 100 µM | 19 µM |  |  |
| CC(=O)N[C@@H](CCCCN)C(=O)N[C@@H](CCC(N)=O)C(=O)N[C@@H](CC(C)C)C(=O)N[C@@H](CCCNC(=N)N)C(=O)c1nc2ccccc2s1 [Ref.1, Ac-KQLR-kbt, reference compound] | 338 nM | 3430 nM | 3010 nM | > 100 µM | 15.6 µM |  |  |
| N=C(N)c1ccccc1 [Ref.4, Benzamidine] |  |  |  |  |  | > 100 µM | IC50 [6]: > 100 µM; IC50 [8]: > 1000 µM |
| CC(=O)N[C@@H](CCC(N)=O)C(=O)N[C@@H](CCC(N)=O)C(=O)N[C@H](C(=O)N[C@@H](CCCNC(=N)N)C(=O)c1nc2ccccc2s1)C(C)C [Compound 4, Ac-QQVR-kbt] | 1500 nM | 500 nM | 2050 nM | > 10 µM | 58.5 µM |  |  |
| CC(=O)N[C@@H](CCCNC(=N)N)C(=O)N[C@@H](CCC(N)=O)C(=O)N[C@@H](CC(C)C)C(=O)N[C@@H](CCCNC(=N)N)C(=O)c1nc2ccccc2s1 [Compound 1, Ac-RQLR-kbt] | 47.1 nM | 1260 nM | 804 nM | > 100 µM | 11.1 µM |  |  |
| CC(=O)NCC(=O)N[C@@H](CCC(N)=O)C(=O)N[C@@H](CCCNC(=N)N)C(=O)N[C@@H](CCCNC(=N)N)C(=O)c1nc2ccccc2s1 [Compound 3, Ac-GQRR-kbt] | 22000 nM | 332 nM | 1300 nM | > 100 µM | 20.1 µM |  |  |
| CC(=O)N[C@@H](CC(C)C)C(=O)N[C@@H](CC(C)C)C(=O)N[C@H](C=O)CCCNC(=N)N [Ref.3, Leupeptin] |  |  |  |  |  | > 13.9 µM | IC50 [6]: > 27.6 µM; IC50 [9]: > 100 µM; IC50 [8]: 36.8 µM |
| [H]/N=C(/N)c1ccc(NCc2nc3cc(C(=O)N(CCC(=O)O)c4ccccn4)ccc3n2C)cc1 [Ref.2, Dabigatran] |  |  |  |  |  |  | IC50 [6]: > 100 µM |
| CC(=O)N[C@@H](CC(N)=O)C(=O)N[C@@H](CCC(=O)O)C(=O)N[C@@H](CCC(N)=O)C(=O)N[C@@H](CCCNC(=N)N)C(=O)c1nc2ccccc2s1 [Compound 6, Ac-NEQR-kbt] | 8140 nM | 1190 nM | 1400 nM | > 100 µM | 34.2 µM |  |  |
| CC(=O)N[C@@H](CCCNC(=N)N)C(=O)N[C@@H](CCC(=O)O)C(=O)N[C@@H](CS)C(=O)N[C@@H](CCCNC(=N)N)C(=O)c1nc2ccccc2s1 [Compound 7, Ac-RECR-kbt] | 611 nM | 835 nM |  | > 100 µM |  |  |  |
| N=C(N)Nc1ccc(C(=O)Oc2ccc(CC(=O)O)cc2)cc1 [Ref.8, FOY 251] |  |  |  |  |  | 21.5 µM | IC50 [9]: > 100 µM |
| N=C(N)c1ccc(CNC(=O)[C@@H]2CCN2C(=O)[C@H](NCC(=O)O)C2CCCCC2)cc1 [Ref.7, Melagatran] |  |  |  |  |  | 0.216 µM |  |
| CC[C@H](C)[C@H](NC(=O)[C@H](C)NC(=O)[C@H](CCC(=O)O)NC(=O)[C@H](CCC(=O)O)NC(=O)[C@H](CC(C)C)NC(=O)[C@H](CCCCN)NC(=O)[C@H](CCCCN)NC(=O)[C@H](CCSC)NC(=O)[C@H](CCC(=O)O)NC(=O)[C@H](Cc1ccc(O)cc1)NC(=O)[C@H](CCC(=O)O)NC(=O)[C@H](CC(C)C)NC(=O)[C@H](CC(=O)O)NC(=O)[C@H](CC(C)C)NC(=O)[C@H](Cc1ccccc1)NC(=O)[C@@H](NC(=O)[C@@H](NC(=O)[C@H](CC(N)=O)NC(=O)[C@@H](NC(=O)[C@H](CCC(N)=O)NC(=O)[C@H](CC(=O)O)NC(=O)[C@H](CC(C)C)NC(=O)[C@@H](N)CO)[C@@H](C)CC)C(C)C)[C@@H](C)O)C(=O)N[C@@H](CCCCN)C(=O)N[C@@H](CCCCN)C(=O)N[C@@H](CC(C)C)C(=O)N[C@@H](CCC(=O)O)C(=O)N[C@@H](CCC(=O)O)C(=O)N[C@@H](CO)C(=O)N[C@@H](Cc1ccc(O)cc1)C(=O)N[C@H](C(=O)N[C@@H](CC(=O)O)C(=O)N[C@@H](CC(C)C)C(=O)N[C@@H](CCCCN)C(=O)N[C@@H](CCC(=O)O)C(=O)N[C@@H](CC(C)C)C(=O)O)[C@@H](C)CC [Ref.9, EK1, reference compound] |  |  | 228 nM |  |  |  |  |
| CN(C)C(=O)COC(=O)Cc1ccc(OC(=O)c2ccc(NC(=N)N)cc2)cc1 [Ref.5, Camostat mesylate] |  |  |  |  |  | 5.3 µM | IC50 [10]: 32.4 µM; IC50 [8]: 0.505 µM |
| N=C(N)NCCC[C@H](NC(=O)[C@@H]1CCCN1C(=O)[C@H](N)Cc1ccccc1)C(=O)CCl [Ref.6, PPack] |  |  |  |  |  | 0.0745 µM | IC50 [6]: > 100 µM; IC50 [9]: 0.000268 µM |
| CC(=O)N[C@@H](CCC(=O)O)C(=O)N[C@@H](CCC(N)=O)C(=O)N1CCC[C@H]1C(=O)N[C@@H](CCCNC(=N)N)C(=O)c1nc2ccccc2s1 [Compound 5, Ac-EQPR-kbt] | > 100000 nM | 2870 nM | 2100 nM | > 100 µM |  |  |  |

Source: patent EP3925667A1, “SELECTIVE TMPRSS2 INHIBITORS AND MEDICAL USE THEREOF” (priority 2020, dated 2021)
